Reference: patent US20180273480A1, “INOSITOL NICOTINATE CRYSTALLINE FORM A AND PREPARATION METHOD THEREFOR” (WEIFANG SHENGYU PHARMA CO., LTD., priority 2015, published 2018)

How the values were obtained:
[1] = cited from earlier work
[2] = Storage stability of the crystal form at 40° C. and 75% RH for six months, XRPD comparison (FIG. 5); type: physicochemical; conditions: stored at 40° C. and 75% RH for six months
Protocol: FIG. 5 is an X-ray powder diffraction (XRPD) comparison diagram of crystal form A of inositol nicotinate provided by the present invention stored for half a year at 40° C. and under the condition of 75% of relative humidity.
XRPD analysis: It was detected at room temperature using a Bruker D8 advance type diffractometer from German Brook Instrument Co., Ltd by Cu-Kα rays (λ=1.5418 Å), with a 2θ angle scanning from 3° to 40°, and the scanning speed was 0.2°/second.
The crystal form A of inositol nicotinate obtained in the above examples was stored under conditions of 40° C. and 75% RH for six months.

Row | crystal form after storage (physical stability, XRPD comparison) [2] | Compound | solubility in chloroform ([1]; chloroform) | solubility in ethanol ([1]; ethanol and other organic solvents) | solubility in dimethyl sulfoxide ([1]; hot dimethylformamide or dimethyl sulfoxide) | solubility in hot dimethylformamide ([1]; hot dimethylformamide) | solubility in water ([1]; water)
1 |  | O=C(O[C@H]1[C@H](OC(=O)c2cccnc2)[C@@H](OC(=O)c2cccnc2)[C@H](OC(=O)c2cccnc2)[C@@H](OC(=O)c2cccnc2)[C@H]1OC(=O)c1cccnc1)c1cccnc1 [Inositol nicotinate, cis-1,2,3,5-trans-4,6-cyclohexanehexol niacinate] | very slightly soluble | insoluble | only soluble | only soluble | insoluble
2 | has not changed | O=C(O[C@H]1[C@H](OC(=O)c2cccnc2)[C@@H](OC(=O)c2cccnc2)[C@H](OC(=O)c2cccnc2)[C@@H](OC(=O)c2cccnc2)[C@H]1OC(=O)c1cccnc1)c1cccnc1 [crystal form A of inositol nicotinate, cis-1,2,3,5-trans-4,6-cyclohexanehexol niacinate] |  |  |  |  | 
